The assay relates to peripheral blood monocytes. Briefly: uptake of fluorochrome-conjugated gonadotropins by blood-derived leukocytes (FACS). It counts as cell-based, human. As to conditions: FIG. 1B. As to the method:
Blood-derived monocytes are enriched by density gradient centrifugation. […] Cells are labelled with fluorochrome-conjugated monocyte marker (e.g. anti-CD14-PerCP antibody, as described above) and analyzed with multi-colour flow cytometry (FACS).
Unspecific binding (background) is estimated as MFI for cells incubated on ice
Cells were analyzed with flow cytometry (FACS) with simultaneous detection of multiple cell lineage markers.

In the case of cytochalasin, the “effect on gonadotropin binding to monocytes” value is “inhibited”.

These data come from US20150050663A1, “Optimal Gonadotropin Dosage” (Oslo Universitetssykehus HF, priority 2012, published 2015).
